The test system of test [1] is P. falciparum Dd2 (PfLuc) line expressing firefly luciferase, asexual blood stage. In words: microbe, parasite or virus in culture. Format: cell-based, Plasmodium falciparum. Particulars: Plasmodium falciparum.
A further test concerns P. falciparum Dd2. Briefly: SYBR green I asexual blood stage proliferation assay (96 h). Format: cell-based, Plasmodium falciparum. The settings on record: Plasmodium falciparum, DD2, 11-pt dose response, 96hr.
Where [2] appears, read: DD2, read-out: CDD P. falciparum Luciferase ABS 11-pt Reconfirmation Dose Response (48hr): IC50 (μM), 11-pt dose response, 48hr.
[3] abbreviates: DD2, 8-pt dose response, 96hr, read-out: CDD P. falciparum Luciferase ABS 8-pt Reconfirmation Dose Response (96hr): IC50.
The mark [4] stands for this setting: DD2, 8-pt dose response, 96hr, read-out: CDD P. falciparum Luciferase ABS 8-pt Reconfirmation Dose Response (96hr): Maximum inhibition (%).
Where [5] appears, read: DD2, 11-pt dose response, 48hr, read-out: CDD P. falciparum Luciferase ABS 11-pt Reconfirmation Dose Response (48hr): Maximum inhibition (%).
[6] abbreviates: DD2, 11-pt dose response, 96hr, read-out: CDD P. falciparum Luciferase ABS 11-pt Reconfirmation Dose Response (96hr): IC50.
[7] abbreviates: DD2, 11-pt dose response, 96hr, read-out: CDD P. falciparum Luciferase ABS 11-pt Reconfirmation Dose Response (96hr): Maximum inhibition (%).
The mark [8] stands for this setting: Sybr Green I, read-out: CDD P. falciparum Sybr Green I ABS 11-pt Reconfirmation Dose Response (96hr): IC50.
The mark [9] stands for this setting: Sybr Green I, read-out: CDD P. falciparum Sybr Green I ABS 11-pt Reconfirmation Dose Response (96hr): Maximum inhibition (%).

Like-named read-outs stand apart in the source and are kept apart here.

By IC50 is commonly meant the concentration that inhibits the measured activity by half.

For `Clc1cccc(N[C@H]2CCCN[C@H]2Cc2ccccc2)c1` [DDD01058816], the 50% inhibitory concentration (IC50) in test [1] (setting [2]) stood at 1.92 µM; in test [1] (setting [3]), 1.06 µM; in test [1] (setting [6]), 0.64 µM; in the test on P. falciparum Dd2 (setting [8]) it was 3.54 µM. The Emax turned out to be 95.6% in test [1] (setting [4]), 100% in test [1] (setting [5]), 101% in test [1] (setting [7]) and 94.8% in the test on P. falciparum Dd2 (setting [9]).
In the case of `Cc1cc(CN2CCc3nc(-c4ccncc4)nc(O)c3CC2)c(C)s1` [DDD01058881], the IC50 in test [1] (DD2, read-out: P. falciparum Luciferase ABS 11-pt Reconfirmation Dose Response (48hr): IC50, 11-pt dose response, 48hr) came to 9.43 µM; in test [1] (DD2, 8-pt dose response, 96hr, read-out: P. falciparum Luciferase ABS 8-pt Reconfirmation Dose Response (96hr): IC50) it was 1.72 µM; in test [1] (DD2, 11-pt dose response, 96hr, read-out: P. falciparum Luciferase ABS 11-pt Reconfirmation Dose Response (96hr): IC50), 2.93 µM; in the test with P. falciparum Dd2 (read-out: P. falciparum Sybr Green I ABS 11-pt Reconfirmation Dose Response (96hr): IC50), 6.28 µM. The Emax was 88.5% in test [1] (DD2, 8-pt dose response, 96hr, read-out: P. falciparum Luciferase ABS 8-pt Reconfirmation Dose Response (96hr): Maximum inhibition (%)); 79% in test [1] (DD2, 11-pt dose response, 48hr, read-out: P. falciparum Luciferase ABS 11-pt Reconfirmation Dose Response (48hr): Maximum inhibition (%)); 93.4% in test [1] (DD2, 11-pt dose response, 96hr, read-out: P. falciparum Luciferase ABS 11-pt Reconfirmation Dose Response (96hr): Maximum inhibition (%)); 78.2% in the test on P. falciparum Dd2 (read-out: P. falciparum Sybr Green I ABS 11-pt Reconfirmation Dose Response (96hr): Maximum inhibition (%)).
`FC(F)(F)c1cc(C2CCNCC2)nc(-c2ccsc2)n1` [DDD01058935]: the IC50 is more than 12.5 µM in test [1] (setting [2]), 0.67 µM in test [1] (setting [3]), more than 1.39 µM in test [1] (setting [6]) and 4.36 µM in the test with P. falciparum Dd2 (setting [8]). Also, the Emax was 64.4% in test [1] (setting [5]), 92.1% in test [1] (setting [7]) and 60.5% in the test on P. falciparum Dd2 (setting [9]).
Turning to `CC(C)(C)C(=O)N1C[C@H](c2ccsc2)[C@H]2CN(C3CCCCC3)CC[C@H]21` [DDD01058940], the IC50 in test [1] (setting [2]) is more than 12.5 µM; in test [1] (setting [3]), 0.84 µM; in test [1] (setting [6]), 2.03 µM; in the test with P. falciparum Dd2 (setting [8]), 8.8 µM. The Emax came to 83.6% in test [1] (setting [4]), 59.1% in test [1] (setting [5]), 90.2% in test [1] (setting [7]) and 74.2% with P. falciparum Dd2 (setting [9]).
With `Cc1ccc(C2(CN3CCN(Cc4cnc(C)n4C)CC3)CC2)cc1` [DDD01059041], the IC50 was 1.95 µM in test [1] (setting [2]), 0.25 µM in test [1] (setting [3]), 0.532 µM in test [1] (setting [6]) and 1.32 µM in the test on P. falciparum Dd2 (setting [8]). The Emax was 77.8% in test [1] (setting [5]) and 88.5% in the test with P. falciparum Dd2 (setting [9]).
Consider `CN(C)CCN(C)C(=O)Cn1cccc2cc(-c3ccc(F)cc3)nc1-2` [DDD01059044], for which the half-inhibitory concentration (IC50) in test [1] (setting [2]) is 1.87 µM; in test [1] (setting [3]) it was 0.54 µM; in test [1] (setting [6]) it was 1.9 µM; with P. falciparum Dd2 (setting [8]), 1.17 µM. Also, the Emax amounted to 95.7% in test [1] (setting [4]), 95.1% in test [1] (setting [5]), 98.3% in test [1] (setting [7]) and 99.6% in the test on P. falciparum Dd2 (setting [9]).
As to `Cc1cccc(Nc2cccc(C3CCCN(Cc4ncc[nH]4)C3)n2)n1` (stereo not drawn) [DDD01059475], the 50% inhibitory concentration (IC50) in test [1] (setting [2]) was 1.69 µM; in test [1] (setting [3]) it was 1.07 µM; in test [1] (setting [6]), more than 1.39 µM; in the test on P. falciparum Dd2 (setting [8]), 0.965 µM. Further, the Emax is 95.8% in test [1] (setting [4]), 98.9% in test [1] (setting [5]), 100% in test [1] (setting [7]) and 92.2% in the test on P. falciparum Dd2 (setting [9]).
As to `CC(C)CNC(=O)C1(Cc2ccccc2-c2cccs2)CCNC1` (stereo not drawn) [DDD01059689], the IC50 in test [1] (setting [2]) is more than 12.5 µM; in test [1] (setting [3]), 0.92 µM; in test [1] (setting [6]), more than 1.39 µM; in the test on P. falciparum Dd2 (setting [8]), more than 12.5 µM. Besides, the Emax in test [1] (setting [4]) was 73.8%; in test [1] (setting [5]), 49.4%; in test [1] (setting [7]), 87.3%; in the test on P. falciparum Dd2 (setting [9]), 45.7%.
For the molecule `N[C@@H]1CCC[C@@H](Oc2ccc(F)cc2Oc2ccccc2)[C@@H]1O` [DDD01059731], the IC50 in test [1] (setting [2]) was more than 1.4 µM; in test [1] (setting [3]), 0.69 µM; in test [1] (setting [6]), more than 1.39 µM; in the test on P. falciparum Dd2 (setting [8]), 4.96 µM. For the same molecule, the Emax is 93.5% in test [1] (setting [4]), 89.8% in test [1] (setting [5]), 98.4% in test [1] (setting [7]) and 86.9% in the test on P. falciparum Dd2 (setting [9]).
Consider `Cc1ccc(Oc2cc(F)ccc2O[C@@H]2CCC[C@@H](N)[C@H]2O)cc1` [DDD01059749], for which the half-inhibitory concentration (IC50) in test [1] (setting [2]) is 2.7 µM; in test [1] (setting [3]), 0.54 µM; in test [1] (setting [6]), more than 1.39 µM; in the test on P. falciparum Dd2 (setting [8]) it was 2.27 µM. In addition, the Emax in test [1] (setting [4]) was determined as 92.7%; in test [1] (setting [5]), 98%; in test [1] (setting [7]), 100%; in the test with P. falciparum Dd2 (setting [9]) it was 95.9%.
With `Cc1cccnc1CN1CC[C@H](Oc2cccc(F)c2)[C@@](C)(O)C1` [DDD01060871], the half-inhibitory concentration (IC50) was determined as 1.92 µM in test [1] (setting [2]), 0.92 µM in test [1] (setting [3]), 0.553 µM in test [1] (setting [6]) and 2.59 µM with P. falciparum Dd2 (setting [8]). The Emax came to 90.5% in test [1] (setting [4]), 93.1% in test [1] (setting [5]), 100% in test [1] (setting [7]) and 82.8% with P. falciparum Dd2 (setting [9]).
As to `CC1(C)CC(N(Cc2cccnc2)Cc2cccc(F)c2)CC(C)(C)N1` [DDD01060979], the IC50 was 3.32 µM in test [1] (setting [2]), 0.3 µM in test [1] (setting [3]), more than 1.39 µM in test [1] (setting [6]) and 8.55 µM with P. falciparum Dd2 (setting [8]). Also, the Emax in test [1] (setting [4]) turned out to be 88%; in test [1] (setting [7]), 98.4%; in the test on P. falciparum Dd2 (setting [9]) it was 79.9%.
As to `Cc1ccsc1CN(Cc1cccnc1)C1CC(C)(C)NC(C)(C)C1` [DDD01060982], the IC50 in test [1] (setting [2]) was 4.19 µM; in test [1] (setting [3]) it was 1.04 µM; in test [1] (setting [6]) it was 1.59 µM; with P. falciparum Dd2 (setting [8]) it was more than 4.16 µM. For the same molecule, the Emax in test [1] (setting [4]) was determined as 88.1%; in test [1] (setting [5]), 61.9%; in test [1] (setting [7]) it was 95.6%; in the test on P. falciparum Dd2 (setting [9]), 70.5%.
Consider `Cc1ccsc1CN(CCCN(C)C)Cc1ccccn1` [DDD01060996], for which the IC50 in test [1] (setting [2]) was more than 12.5 µM; in test [1] (setting [3]), 0.55 µM; in test [1] (setting [6]), 3.57 µM; with P. falciparum Dd2 (setting [8]), more than 12.5 µM. The Emax in test [1] (setting [4]) is 79.6%; in test [1] (setting [5]) it was 51.6%; in test [1] (setting [7]), 82.3%; in the test on P. falciparum Dd2 (setting [9]) it was 46.2%.
On to `COc1ccc(C(C)NCc2ccsc2)cc1Cn1cccn1` (stereo not drawn) [DDD01061827], for which the half-maximal inhibitory concentration (IC50) in test [1] (setting [2]) is more than 12.5 µM; in test [1] (setting [3]), 0.79 µM; in test [1] (setting [6]) it was 1.78 µM; in the test on P. falciparum Dd2 (setting [8]) it was more than 4.16 µM. The Emax in test [1] (setting [4]) came out at 81.9%; in test [1] (setting [5]), 38.8%; in test [1] (setting [7]) it was 68.9%; in the test on P. falciparum Dd2 (setting [9]), 58.7%.
As to `Cc1ccc(CNC(C)c2cc(F)ccc2N2CCN(C)CC2)o1` (stereo not drawn) [DDD01061881], the 50% inhibitory concentration (IC50) in test [1] (setting [2]) was 3.93 µM; in test [1] (setting [3]), 0.41 µM; in test [1] (setting [6]) it was 2.12 µM; in the test with P. falciparum Dd2 (setting [8]), 2.42 µM. The results for the Emax in test [1] (setting [4]), in test [1] (setting [5]) and in test [1] (setting [7]) were 90.7%, 87.5% and 97.7%, respectively.
Turning to `Cc1cnn(CCNCc2nccn2Cc2ccccc2)c1` [DDD01062085], the IC50 in test [1] (setting [2]) is 10.4 µM; in test [1] (setting [3]), 0.53 µM; in test [1] (setting [6]) it was 1.22 µM; in the test on P. falciparum Dd2 (setting [8]), more than 12.5 µM. For the same molecule, the Emax was found to be 75% in test [1] (setting [5]), 95.2% in test [1] (setting [7]) and 51.3% with P. falciparum Dd2 (setting [9]).
Consider `CN1CCC(N(Cc2ccco2)S(=O)(=O)c2ccc(Br)cc2Cl)CC1` [DDD01063208], for which the half-maximal inhibitory concentration (IC50) is more than 12.5 µM in test [1] (setting [2]), 0.58 µM in test [1] (setting [3]), 2.19 µM in test [1] (setting [6]) and 10.6 µM in the test on P. falciparum Dd2 (setting [8]). For the same molecule, the Emax in test [1] (setting [4]) worked out at 76.6%; in test [1] (setting [5]), 21.3%; in test [1] (setting [7]) it was 81.7%; in the test on P. falciparum Dd2 (setting [9]), 54.5%.
Consider `Cc1ccc(CN(c2cc(C)nc3nc(C(F)(F)F)nn23)C2CC2)cc1` [DDD01063654], for which the IC50 in test [1] (setting [2]) is 2.34 µM; in test [1] (setting [3]), 0.37 µM; in test [1] (setting [6]), 0.45 µM; with P. falciparum Dd2 (setting [8]) it was 2.1 µM. The Emax in test [1] (setting [5]) stood at 89.4%; in test [1] (setting [7]), 99.7%.

The values above are taken from PMC7155171, “Probing the Open Global Health Chemical Diversity Library for Multistage-Active Starting Points for Next-Generation Antimalarials” (ACS Infectious Diseases, 2020).
